Assay results taken from patent US12077503B2, “Substituted cyclic amides and their use as herbicides” (FMC CORPORATION, priority 2015, dated 2024).
Read-outs that look alike come from different tables or passages of the source.

Experiments:
Type in all cases: in vivo
[1] = test system: pigweed (Amaranthus retroflexus); experiment: Test A preemergence; details: Amaranthus retroflexus, pre-emergence, 240 h; for pest or weed control at 125 g/ha: 125 g ai/ha; for pest or weed control at 500 g/ha: 500 g ai/ha
[2] = test system: Galium (catchweed bedstraw, Galium aparine); experiment: Test A postemergence; details: Galium, post-emergence, 240 h, postemergence; for pest or weed control at 125 g/ha: 125 g ai/ha
In short: (§1)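 Seeded soil received test chemicals as a preemergence directed spray, and seedlings at one to two leaves, 2–10 cm tall, received them postemergence, in a non-phytotoxic, surfactant-containing solvent mixture. Pots were held in a greenhouse for approximately 10 d, then rated for injury from 0, no effect, to 100, complete control.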

Kochia (Kochia scoparia) = experiment: Test A postemergence; details: Bassia scoparia, post-emergence, 240 h, postemergence; for pest or weed control at 125 g/ha: 125 g ai/ha
In short: as §1

[3] = test system: barnyardgrass (Echinochloa crus-galli); experiment: Test A postemergence; details: Echinochloa crus-galli, post-emergence, 240 h, postemergence; for pest or weed control at 125 g/ha: 125 g ai/ha
In short: as §1

[4] = test system: blackgrass (Alopecurus myosuroides); experiment: Test A postemergence; details: Alopecurus myosuroides, post-emergence, 240 h, postemergence; for pest or weed control at 125 g/ha: 125 g ai/ha
In short: as §1

corn (Zea mays) = experiment: Test A postemergence; details: Zea mays, post-emergence, 240 h, postemergence; for plant injury at 125 g/ha: 125 g ai/ha
In short: as §1

[5] = test system: giant foxtail (Setaria faberii); experiment: Test A postemergence; details: Setaria faberi, post-emergence, 240 h, postemergence; for pest or weed control at 125 g/ha: 125 g ai/ha
In short: as §1

[6] = test system: pigweed (Amaranthus retroflexus); experiment: Test A postemergence; details: Amaranthus retroflexus, post-emergence, 240 h, postemergence; for pest or weed control at 125 g/ha: 125 g ai/ha
In short: as §1

[7] = test system: ragweed (common ragweed, Ambrosia elatior); experiment: Test A postemergence; details: Ambrosia artemisiifolia, post-emergence, 240 h, postemergence; for pest or weed control at 125 g/ha: 125 g ai/ha
In short: as §1

[8] = test system: ryegrass, Italian (Italian ryegrass, Lolium multiflorum); experiment: Test A postemergence; details: Lolium multiflorum, post-emergence, 240 h, postemergence; for pest or weed control at 125 g/ha: 125 g ai/ha
In short: as §1

[9] = test system: wheat (Triticum aestivum); experiment: Test A postemergence; details: Triticum aestivum, post-emergence, 240 h, postemergence; for plant injury at 125 g/ha: 125 g ai/ha
In short: as §1

[10] = test system: barnyardgrass (Echinochloa crus-galli); experiment: Test B flooded paddy test; details: Echinochloa crus-galli, Flood, 250 g ai/ha, read-out: Barnyardgrass plant response rating
In short: (§2)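 Evaluation by eye, against controls, occurred 13–15 d post-treatment in a greenhouse, using a 0 (no effect) to 100 (complete control) scale. Application was into the paddy water, 3 cm deep over the soil, on 2-leaf plants.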

[11] = test system: ducksalad (Heteranthera limosa); experiment: Test B flooded paddy test; details: Heteranthera limosa, Flood, 250 g ai/ha, read-out: Ducksalad plant response rating
In short: as §2

rice (Oryra sativa) = experiment: Test B flooded paddy test; details: Oryza sativa, Flood, 250 g ai/ha, read-out: Rice plant response rating
In short: as §2

[12] = test system: sedge, umbrella (small-flower umbrella sedge, Cyperus difformis); experiment: Test B flooded paddy test; details: Cyperus difformis, Flood, 250 g ai/ha, read-out: Sedge, Umbrella plant response rating
In short: as §2

[13] = preemergence, 0 to 100 scale where 0 is no effect and 100 is complete control, read-out: Pigweed plant response rating
[14] = Preemergence, visual injury vs untreated controls after approximately 10 d, read-out: Pigweed plant response rating (0 to 100 scale where 0 is no effect and 100 is complete control)
[15] = visual injury rating after approximately 10 d, read-out: Galium plant response rating (0 to 100 scale, 0 no effect, 100 complete control)
[16] = visual injury rating after approximately 10 d, read-out: Kochia plant response rating (0 to 100 scale, 0 no effect, 100 complete control)
[17] = visual injury rating after approximately 10 d, read-out: Barnyardgrass plant response rating (0 to 100 scale, 0 no effect, 100 complete control)
[18] = visual injury rating after approximately 10 d, read-out: Blackgrass plant response rating (0 to 100 scale, 0 no effect, 100 complete control)
[19] = visual injury rating after approximately 10 d, read-out: Corn plant response rating (0 to 100 scale, 0 no effect, 100 complete control)
[20] = visual injury rating after approximately 10 d, read-out: Foxtail, Giant plant response rating (0 to 100 scale, 0 no effect, 100 complete control)
[21] = visual injury rating after approximately 10 d, read-out: Pigweed plant response rating (0 to 100 scale, 0 no effect, 100 complete control)
[22] = visual injury rating after approximately 10 d, read-out: Ragweed plant response rating (0 to 100 scale, 0 no effect, 100 complete control)
[23] = visual injury rating after approximately 10 d, read-out: Ryegrass, Italian plant response rating (0 to 100 scale, 0 no effect, 100 complete control)
[24] = visual injury rating after approximately 10 d, read-out: Wheat plant response rating (0 to 100 scale, 0 no effect, 100 complete control)
[25] = scale of 0 to 100 where 0 is no effect and 100 is complete control
[26] = 0 to 100 scale where 0 is no effect and 100 is complete control

Cc1cc(C)cc([C@H]2CN(C)C(=O)[C@@H]2C(=O)Nc2cccc(F)c2F)c1 [Compound 911]
pest or weed control at 125 g/ha [1, 13]: 20%
pest or weed control at 500 g/ha [1, 14]: 50%
pest or weed control at 125 g/ha [2, 15]: 40%
pest or weed control at 125 g/ha (Kochia (Kochia scoparia); [16]): 50%
pest or weed control at 125 g/ha [3, 17]: 90%
pest or weed control at 125 g/ha [4, 18]: 50%
plant injury at 125 g/ha (corn (Zea mays); [19]): 80%
pest or weed control at 125 g/ha [5, 20]: 90%
pest or weed control at 125 g/ha [6, 21]: 0%
pest or weed control at 125 g/ha [7, 22]: 0%
pest or weed control at 125 g/ha [8, 23]: 70%
plant injury at 125 g/ha [9, 24]: 50%
pest or weed control at 250 g/ha [10, 25]: 80%
pest or weed control at 250 g/ha [11, 25]: 75%
pest or weed control at 250 g/ha (rice (Oryra sativa); [25]): 0%
pest or weed control at 250 g/ha [12, 25]: 0%

Cc1cc([C@H]2CN(C)C(=O)[C@@H]2C(=O)Nc2ccccc2S(C)(=O)=O)ccc1Br [Compound 1102]
pest or weed control at 125 g/ha ([1]; preemergence, 0 to 100 scale where 0 is no effect and 100 is complete control, approx. 10 d, read-out: Pigweed plant response rating): 20%
pest or weed control at 500 g/ha [1, 13]: 50%
pest or weed control at 125 g/ha ([2]; visual injury on 0 to 100 scale (0 no effect, 100 complete control), approx. 10 d, read-out: Galium plant response rating): 0%
pest or weed control at 500 g/ha ([2]; 500 g ai/ha, 0 to 100 scale, 0 is no effect, 100 is complete control, read-out: Galium plant response rating): 30%
pest or weed control at 125 g/ha (Kochia (Kochia scoparia); visual injury on 0 to 100 scale (0 no effect, 100 complete control), approx. 10 d, read-out: Kochia plant response rating): 0%
pest or weed control at 500 g/ha (Kochia (Kochia scoparia); 500 g ai/ha, 0 to 100 scale, 0 is no effect, 100 is complete control, read-out: Kochia plant response rating): 0%
pest or weed control at 125 g/ha ([3]; visual injury on 0 to 100 scale (0 no effect, 100 complete control), approx. 10 d, read-out: Barnyardgrass plant response rating): 80%
pest or weed control at 500 g/ha ([3]; 500 g ai/ha, 0 to 100 scale, 0 is no effect, 100 is complete control, read-out: Barnyardgrass plant response rating): 80%
pest or weed control at 125 g/ha ([4]; visual injury on 0 to 100 scale (0 no effect, 100 complete control), approx. 10 d, read-out: Blackgrass plant response rating): 20%
pest or weed control at 500 g/ha ([4]; 500 g ai/ha, 0 to 100 scale, 0 is no effect, 100 is complete control, read-out: Blackgrass plant response rating): 50%
plant injury at 125 g/ha (corn (Zea mays); visual injury on 0 to 100 scale (0 no effect, 100 complete control), approx. 10 d, read-out: Corn plant response rating): 20%
plant injury at 500 g/ha (corn (Zea mays); 500 g ai/ha, 0 to 100 scale, 0 is no effect, 100 is complete control, read-out: Corn plant response rating): 60%
pest or weed control at 125 g/ha ([5]; visual injury on 0 to 100 scale (0 no effect, 100 complete control), approx. 10 d, read-out: Foxtail, Giant plant response rating): 80%
pest or weed control at 500 g/ha ([5]; 500 g ai/ha, 0 to 100 scale, 0 is no effect, 100 is complete control, read-out: Foxtail, Giant plant response rating): 90%
pest or weed control at 125 g/ha ([6]; visual injury on 0 to 100 scale (0 no effect, 100 complete control), approx. 10 d, read-out: Pigweed plant response rating): 0%
pest or weed control at 500 g/ha ([6]; 500 g ai/ha, 0 to 100 scale, 0 is no effect, 100 is complete control, read-out: Pigweed plant response rating): 0%
pest or weed control at 125 g/ha ([7]; visual injury on 0 to 100 scale (0 no effect, 100 complete control), approx. 10 d, read-out: Ragweed plant response rating): 0%
pest or weed control at 500 g/ha ([7]; 500 g ai/ha, 0 to 100 scale, 0 is no effect, 100 is complete control, read-out: Ragweed plant response rating): 20%
pest or weed control at 125 g/ha ([8]; visual injury on 0 to 100 scale (0 no effect, 100 complete control), approx. 10 d, read-out: Ryegrass, Italian plant response rating): 0%
pest or weed control at 500 g/ha ([8]; 500 g ai/ha, 0 to 100 scale, 0 is no effect, 100 is complete control, read-out: Ryegrass, Italian plant response rating): 30%
plant injury at 125 g/ha ([9]; visual injury on 0 to 100 scale (0 no effect, 100 complete control), approx. 10 d, read-out: Wheat plant response rating): 20%
plant injury at 500 g/ha ([9]; 500 g ai/ha, 0 to 100 scale, 0 is no effect, 100 is complete control, read-out: Wheat plant response rating): 50%
pest or weed control at 250 g/ha [10, 26]: 60%
pest or weed control at 250 g/ha [11, 26]: 85%
pest or weed control at 250 g/ha (rice (Oryra sativa); [26]): 0%
pest or weed control at 250 g/ha [12, 26]: 0%

CSc1ccccc1NC(=O)[C@H]1C(=O)N(C)C[C@@H]1c1cc(C)cc(F)c1 [Compound 851]
pest or weed control at 125 g/ha [1, 13]: 60%
pest or weed control at 500 g/ha [1, 14]: 90%
pest or weed control at 125 g/ha [2, 15]: 30%
pest or weed control at 125 g/ha (Kochia (Kochia scoparia); [16]): 0%
pest or weed control at 125 g/ha [3, 17]: 90%
pest or weed control at 125 g/ha [4, 18]: 0%
plant injury at 125 g/ha (corn (Zea mays); [19]): 0%
pest or weed control at 125 g/ha [5, 20]: 90%
pest or weed control at 125 g/ha [6, 21]: 0%
pest or weed control at 125 g/ha [7, 22]: 0%
pest or weed control at 125 g/ha [8, 23]: 0%
plant injury at 125 g/ha [9, 24]: 20%
pest or weed control at 250 g/ha [10, 25]: 0%
pest or weed control at 250 g/ha [11, 25]: 90%
pest or weed control at 250 g/ha (rice (Oryra sativa); [25]): 0%
pest or weed control at 250 g/ha [12, 25]: 0%
